# From patent US8609409B2, “Methods and compositions for cell culture platform” (Clemson University, priority 2009, dated 2013)
# “Also recorded” adds a separate entry of the source. Where no end group is shown, it is not given here.
# Key:
# [1] = system: Human neural progenitor cells (hNPCs); experiment: hNPCs cultured on the surface of hydrogels conjugated with peptides; format: cell-based; settings: for hNPC attachment and proliferation on hydrogel surface: lam-IKVAV 100 μM, our peptide 10 and 100 μM
# Description: (§1) The lam-IKVAV peptide and our synthesized peptide of different concentrations were conjugated to PEG hydrogels through addition reaction of peptide cys thiols onto the ends of a PEGTA crosslinker as described before^9. Briefly, peptides containing stock solutions (100 μM) were prepared in the PEGTA stock solution (2% w/w) and stirred for 2 h at room temperature. In the peptide-linker stock solutions, the molar ratio of peptides to PEGTA was 1:20. The reaction kinetics of conjugate addition of cys-containing IKVAV peptides to PEGTA was followed using 5,5′-dithio-bis(2-nitrobenzoic acid) (DTNB) reagent according to previous study^9. Additional PEGTA solutions with lower peptide concentrations of 50 and 10 μM were prepared by diluting the stock solution with peptide-free […] solution (peptide: PEGTA: 1:40 and 1:200, respectively). Then PEGTA solutions containing different concentrations of peptides were added to 4-arm thiolated PEG (2% w/w) solution and mixed thoroughly to form hydrogels.
# (§2) Morphology of cells was examined by immunostaining of actin. Cells were fixed with 4% (w/v) paraformaldehyde, permeabilized with 0.5% Triton X-100 (t-octylphenoxyplyethoxy-ethanol), and stained with Alexa Fluor-543 Phalloidin for 30 min. The nuclei were counterstained with 1 μg/mL DAPI for 30 min. The cells were imaged using a Leica TCS SP5 laser scanning confocal microscope (Bannockburn, Ill.).
# Human NPCs were cultured on the surface of hydrogels with maintain media for 7 days. Without any bioactive peptide, hNPCs could not attach on the surface of blank PEG hydrogels (FIG. 22B). The cells formed spheres by themselves at the day 3. […] These attached cells proliferated on the surface as the function of time (FIGS. 22C and 22D). […] There was no difference about the morphology of hNPCs between these two groups.
# [2] = system: Human neural progenitor cells (hNPCs); experiment: hNPC attachment, morphology and proliferation on gold-coated cover slips; format: cell-based; settings: for hNPC attachment: day 1; for state of attached hNPCs: day 10
# Description: (§3) Human neural progenitor cells were obtained from Millipore (Billerica, Mass.). The stem cell is an immortalized neural progenitor cell line derived from the ventral mesencephalon region of human fetal brain and immortalized by retroviral transduction with the v-myc oncogene. In conventional culture, laminin (20 μg/mL) was used to coat tissue culture plastic-wares at least 2 h before hNPC seeding. Human NPCs were maintained in ReNcell Neural Stem Cell Medium (Millipore) with FGF-2 (20 ng/mL) and EGF (20 ng/mL). Human NPCs were incubated at 37° C. under 5% CO2 and used before passage 5 in this study. For cell adhesion assays, cells were removed from the plate using Accutase, aspirated in growth media, and seeded on peptide or laminin coated substrates at a density of 50, 000 cells/cm^2. For differentiation study, hNPCs were cultured with the medium without FGF-2 and EGF.
# The lam-IKVAV and our synthesized peptide were conjugated to gold-coated cover slips. For gold-coating on glass surfaces, cover slips were first cleaned with ethanol by sonication for 30 min. Then gold was coated on the cover slips by a sputter coater. For peptide and laminin coating, the peptide (150 μg/mL or 100 μM) or laminin (20 μg/mL) solutions were applied on the cover slips for at least 2 h. Then the solutions were removed from the slips and washed with phosphate buffered saline (PBS) for three times. Atomic force microscope (AFM) was used to examine the 3D configuration of the peptides on the surface.
# To determine whether peptide-functionalized surfaces can support cell attachment and long-term culture and proliferation, hNPCs were cultured in complete growth medium, which contains FGF-2 and EGF to maintain hNPCs in the undifferentiated state. Cells were incubated at 37° C. with media changed every other day as we routinely culture hNPCs in laminin coated substrates. At the day 1, 5, and 10, cells were assayed with CyQuant (Invitrogen). The cell number was generated through a standard curve.
# as §2
# [3] = system: Human neurospheres (hNPCs); experiment: Human neurospheres cultured inside hydrogels conjugated with peptides; format: cell-based
# Description: Neurospheres with uniform sizes were fabricated using a robotic fabrication system developed in our lab. Briefly, stamps with micronipple array were designed in SolidWorks and fabricated using ultra-precision lathe. The automatic neurospheres fabricator was built on a TT-C3-4040 robot (IAI Corporation, Shizuoka, Japan) with electric triggered gripper to pick up the stamp and pipette tip uptake and ejection actuator to handle liquid. Agarose solution (2% w/w) was prepared by built-in heating elements in the robot platform. The robot was programmed to first add agarose solution to culture dishes. Then the robot picked up the stamp with micronipple arrays on the bottom and pressed on the agarose solution at room temperature for 2 min. Then the highly uniform size microwells were formed in the agarose gel. Human NPC suspension was uptake by the robot and added to the culture well with microwell arrays. After 24 h of culture at 37° C. and 5% CO2, uniform sized neurospheres were formed for this study use. For 3D culture, human neurospheres with uniform size were mixed with hydrogel precursor solutions before hydrogel formation.
# Viability of cells inside hydrogels was examined using LIVE/DEAD Viability Kit, which is a two color fluorescent assay based on differential permeability of live and dead cells and allows preservation of the distinctive staining pattern for a couple of hours after post-fixation with 4% (w/v) glutaraldehyde. Live cells were stained with green fluorescent SYTO 10; and dead cells with compromised cell membranes were stained with red fluorescent ethidium homodimer-2. […]
# We quantified the cell migration by taking measurements of the distance between the edge of spheres and the cell bodies at their outer perimeters. FIG. 26 presents quantification of cell migration from neurospheres cultured inside hydrogels conjugated with lam-IKVAV of 100 μM and our novel IKVAV peptide of different concentrations of 0, 10, 50, and 100 μM at the day 3, 7, and 21. […]
# [4] = Rheological characterization of PEG hydrogels conjugated with peptides; format: physicochemical; settings: 4-arm thiolated PEG 2% + PEGTA 2%, our peptide 10, 50, 100 μM; for start of gelation process (G′>G″): 37° C., lam-IKVAV 100 μM
# Description: Rheometer (AR1000, TA Instruments) was used to measure hydrogel mechanical properties, such as storage modulus (G′) and loss modulus (G″), and gelation time^8. Briefly, the time sweep was performed to monitor the in situ gelation at 37° C., recording the temporal evolution of G′ and G″. Frequency sweep test was used to obtain information about the stability of hydrogel structures. The stress sweep was set up by holding the frequency 1 Hz constant while increasing the stress level from 1 to 10 Pa. […] Oscillatory stress sweep allowed determination of G′ of hydrogels.
# as §1
# [5] = system: Human neural progenitor cells (hNPCs); experiment: hNPC differentiation on coated cover slips; format: cell-based; settings: 2 weeks, media without FGF-2 and EGF
# Description: as §3
# The differentiation of hNPCs on the tested surfaces was assayed by immunocytochemistry. Human NPCs were cultured for 2 weeks with differentiation media without growth factors FGF-2 and EGF. The cells were fixed with 4% (w/v) paraformaldehyde, treated with 5% goat serum in PBS to block non-specific reactivity and incubated overnight at 4° C. with primary antibodies, such as β III tubulin and glial fibrillary acidic protein (GFAP). After washing with PBS three times, the samples were incubated with the secondary antibodies at room temperature for 3 h. Then the nuclei were counterstained with DAPI for 30 min. The samples were imaged using the same microscope as described before. At least 6 random fields per surface were analyzed for each group.
# [6] = system: in vitro cell cultures; experiment: safety and cytotoxic profile of genipin; format: cell-based
# Text: Chitosan and gelatin are two naturally occurring polymers. Chitosan is a polysaccharide formed by cross linkage of multiple monosaccharide units. It has active acetyl groups available for cross linkage. At acidic pH, chitosan is able to undergo polymerization. Gelatin is a peptide polymer and chemically derived from denatured collagen. […] Chitosan and gelatin co-polymer can be created by mixing chitosan with gelatin using a standard and well known procedure that involves creating acidic pH for chitosan polymerization followed by mixing with heated and stirred gelatin solution. However there are two disadvantages of this approach—high osmolarity of the resultant solution (>500 mM) and acidic pH. There are also concerns for cytotoxicity to biological tissues at such high concentrations. These disadvantages render the use of this copolymer useless for clinical application, In the present invention, chitosan and gelatin were cross linked by two different approaches—the first was a covalent linkage using genipin followed by using ionic cross linkage using glycerol phosphate. Genipin is a plant derived cross linker and quite cheap. […] This concentration of genipin was added to chitosan and gelatin mixture. Genipin is able to covalently link both the saccharide and amine groups available in chitosan and gelatin, respectively. This creates a polysaccharide-peptide cross linkage. […]
Compound,"hNPC morphology on hydrogel surface ([1]; day 7, 10 and 100 μM)",hNPC attachment and proliferation on hydrogel surface [1],hNPC attachment and proliferation on hydrogel surface ([1]; listed as our short peptide),attachment and proliferation compared with laminin coated surface [2],hNPC morphology / spreading [2],hNPC attachment [2],state of attached hNPCs [2],peptide density with maximum enhancement of cell migration ([3]; conjugated to PEG hydrogels),"distance of hNSCs migration from neurospheres ([3]; peptide 10 μM, day 3, 7 and 21)",effect on cell migration from neurospheres ([3]; peptide concentration higher than 10 μM),start of gelation process (G′>G″) [4],storage modulus G′ ([4]; at 2 h),cells differentiated into astrocytes (GFAP+) [5],cells differentiated into neurons (β III tubulin+) [5],cells differentiated into astrocytes (GFAP+) ([5]; listed as our short peptide),concentration found to be safe [6]
Ac-Cys-Cys-Arg-Arg-Ile-Lys-Val-Ala-Val-Trp-Leu-Cys (Ac-CCRRIKVAVWLC-OH; cysteine pairing not given here) [our novel peptide],displayed spreading cytoskeletons,"improved hNPC attachment, spreading and proliferation",cells attached at the day 1,no significant difference,spread more evenly,significantly much more cells attached compared to lam-IKVAV,totally confluent on the whole surface,10 µM,2 fold,inhibitory effects on cell migration,40 min,about 600 Pa,33%,54%,about 30%,
COC(=O)C1=CO[C@@H](O)[C@@H]2C(CO)=CC[C@H]12 [genipin],,,,,,,,,,,,,,,,400 µM
"CSRARKQAASIKVAVSADR [lam-IKVAV, commercial laminin IKVAV peptide from American Peptide Company, reference compound]",,aggregated together; also recorded: did not support any hNPC attachment,,,preferred to aggregate together,very few cells attached,floated off the surface,,,,30 min,,,,,
"laminin: mouse laminin, whole ECM protein used as coating (20 μg/mL) [reference compound]",,,,,,,,,,,,,74%,11%,,
